Test results: US12419889B2, “Methods of treating chronic spontaneous urticaria using a bruton's tyrosine kinase inhibitor” (NOVARTIS AG, priority 2019, dated 2025)

Assays:
[1] = tested on: allergen response (wheal size); assay: Skin prick test (SPT) in healthy atopic subjects; assay type: in vivo, human; conditions: 10 mg q.d.
Method: The ability of compound (I) to inhibit a defined allergen response has been evaluated by means of the skin prick test (SPT) in healthy atopic subjects in the MAD study part of the first in human study. SPT was performed prior to dosing (at screening, baseline and pre-dose on Day 1) and at different time points after the first dose (Day 1) and after 11 days of once daily dosing (Day 12).

[2] = target: T1, BTK (Homo sapiens, UniProt Q06187); assay: BTK occupancy in human whole blood (free and total BTK, ELISA on MSD platform); assay type: in vivo
T1 construct: from tissue; host or cells: human whole (peripheral) blood of healthy volunteers and atopic subjects
Method: Pharmacodynamics (PD) was characterized by assessing target occupancy and distal pathway inhibition. Measurements of BTK occupancy in human whole blood (derived as ratio of free and total BTK), served as direct marker of therapeutic target engagement.
Compound of formula (I) is an irreversible inhibitor of BTK, the extent and duration of BTK occupancy were determined.
The relationship between dose and pharmacodynamics was characterized by measurements of BTK occupancy in human blood (derived as ratio of free and total BTK), a direct marker of therapeutic target engagement. BTK occupancy was determined for single ascending doses ranging 0.5 to 400 mg, for q.d. multiple ascending doses ranging from of 10 mg and 400 mg, and for b.i.d. multiple ascending doses of 100 mg and 200 mg.

[3] = First-in-human study, blood and urine PK (SAD, MAD q.d., b.i.d.); assay type: in vivo; conditions: for drug accumulation ratio (Racc): MAD q.d.
Method: A first-in-human study was conducted to assess the safety and tolerability, pharmacokinetics (PK) and pharmacodynamics (PD) of single and multiple doses of compound (I) both as once daily (qd) and twice daily (bid) oral administration in healthy volunteers and those with atopic diathesis, to support further clinical development of compound (I) in autoimmune diseases. This study also explored the effect of food intake.
First-in-human study in up to approximately 168 healthy volunteers (HVs), of which 64 (in Parts 2 & 4) had asymptomatic atopic diathesis. • Part 1 was a double-blind (subject and investigator blind, sponsor unblinded), placebo-controlled single ascending dose (SAD) escalation study of 10 cohorts (N=80) • Part 2 was a double-blind (subject and investigator blind, sponsor unblinded), placebo-controlled multiple ascending dose (MAD) (13 doses over 12 days) escalation study employing once daily dosing in 6 cohorts in healthy volunteers with asymptomatic atopic diathesis (N=48) • Part 3 was a single dose open-label crossover food effect study in 12 HVs • Part 4 was a double-blind (subject and investigator blind, sponsor unblinded), placebo-controlled multiple dose (25 doses over 12 days) study employing twice daily dosing in 2 cohorts of healthy volunteers with asymptomatic atopic diathesis (N=16)
The SAD part (Part 1) had ten dose levels and the MAD parts (Parts 2 & 4) consisted of eight dose levels (6 cohorts using single daily dosing in Part 2 and 2 cohorts using twice daily dosing in Part 4). Eight subjects were randomized into each cohort to receive either compound (I) or matching placebo in a 6:2 (active: placebo) ratio in the SAD and MAD parts. Within the SAD part, doses up to approximately 4 times the estimated pharmacologically active dose (PAD) were to be evaluated before the MAD part of the study was started, providing there was no safety signal emerging from the SAD part until then.
In Part 1, subjects were admitted to the study site on Day −2 or −1 for baseline safety assessments and to confirm eligibility. Eligible subjects received a single dose of compound (I) or placebo under fasting conditions on Day 1. They were domiciled from Day −1 to the morning of Day 5 (96 hours post last drug administration).
In Parts 2 and 4, subjects were admitted on Day −2 or −1 for baseline safety assessments and to confirm eligibility. Eligible subjects received the first dose of compound (I) under fasting conditions on Day 1, and continued to take study medication under fasting conditions up to and including Day 12. Subjects were domiciled from Day −2 or −1 until the morning of Day 16, which equals 96 hours after the last dose of compound (I) was received. In Parts 2 and 4, the study medication was given once daily and twice daily respectively (details are found in the schedule of assessments).
Subjects were assigned to one of the following 10 cohorts. In each cohort, 8 subjects were randomized to either compound (I) or matching placebo in an overall 6:2 ratio. The first sub-cohort was randomized in a 1:1 ratio as one subject on compound (I) and one on matching placebo. […]

T1 sequence (Q06187 whole entry): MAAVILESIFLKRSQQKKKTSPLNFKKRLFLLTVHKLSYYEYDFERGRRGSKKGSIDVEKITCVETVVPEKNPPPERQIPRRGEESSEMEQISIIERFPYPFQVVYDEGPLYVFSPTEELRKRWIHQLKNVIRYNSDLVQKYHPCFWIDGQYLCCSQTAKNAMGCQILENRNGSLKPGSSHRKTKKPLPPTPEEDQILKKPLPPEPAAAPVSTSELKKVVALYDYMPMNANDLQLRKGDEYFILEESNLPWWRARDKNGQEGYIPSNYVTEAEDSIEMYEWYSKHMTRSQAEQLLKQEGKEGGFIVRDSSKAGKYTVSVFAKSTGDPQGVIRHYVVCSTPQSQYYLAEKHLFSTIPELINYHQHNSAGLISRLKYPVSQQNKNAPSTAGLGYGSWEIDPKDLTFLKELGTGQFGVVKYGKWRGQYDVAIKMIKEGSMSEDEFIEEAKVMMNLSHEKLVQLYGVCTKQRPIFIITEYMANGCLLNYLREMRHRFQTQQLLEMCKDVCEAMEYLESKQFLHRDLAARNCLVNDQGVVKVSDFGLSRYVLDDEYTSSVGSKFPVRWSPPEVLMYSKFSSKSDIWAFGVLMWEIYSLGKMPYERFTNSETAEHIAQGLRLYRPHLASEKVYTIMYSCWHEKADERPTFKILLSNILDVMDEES

BTK occupancy in blood ([2]; 10 mg q.d.): nearly complete
duration of BTK occupancy in blood ([2]; blood): > 24 h
median BTK turnover T1/2 ([2]; blood, after single dose): about 48 hours
time to refresh BTK protein pool to pre-dose levels ([2]; blood, after single dose): about 10 days
duration of sustained BTK occupancy ([2]; blood, single doses of 30 mg and higher): > 24 h
time of peak target (BTK) occupancy post dose ([2]; peripheral blood): 0.5 h
Renal clearance, mean ± SD ([3]; Day 12, 400 mg qd): 16.9 ± 7.13 mL/min
drug accumulation ratio (Racc) ([3]; day 12 vs day 1, high dose): 1.2
drug accumulation ratio (Racc) ([3]; day 12 vs day 1, low dose): 5
MRT, median ([3]; blood, Day 1, 10 mg qd): 46 min
MRT, median ([3]; blood, Day 1, 25 mg qd): 70.2 min
AUC0-24, median ([3]; blood, Day 1, 600 mg qd): 932 ng·h/mL
CLss/F, mean ± SD ([3]; blood, Day 12, 10 mg qd): 425 ± 64.8 L/h
CLss/F, median (min-max) ([3]; blood, Day 12, 10 mg qd): 423 (341-529) L/h
AUC0-24, mean ± SD ([3]; blood, Day 12, 25 mg qd): 117 ± 60.9 ng·h/mL
AUClast, mean ± SD ([3]; blood, Day 12, 25 mg qd): 114 ± 59.7 ng·h/mL
CLss/F, mean ± SD ([3]; blood, Day 12, 25 mg qd): 307 ± 253 L/h
CLss/F, median (min-max) ([3]; blood, Day 12, 25 mg qd): 248 (129-809) L/h
AUC0-24, mean ± SD ([3]; blood, Day 12, 50 mg qd): 209 ± 80.2 ng·h/mL
AUC0-24, median (min-max) ([3]; blood, Day 12, 50 mg qd): 181 (127-325) h * ng/mL
CLss/F, mean ± SD ([3]; blood, Day 12, 50 mg qd): 268 ± 92.8 L/h
CLss/F, median (min-max) ([3]; blood, Day 12, 50 mg qd): 276 (154-395) L/h
CLss/F, mean ± SD ([3]; blood, Day 12, 100 mg qd): 198 ± 88.7 L/h
CLss/F, median (min-max) ([3]; blood, Day 12, 100 mg qd): 166 (129-298) L/h
CLss/F, mean ± SD ([3]; blood, Day 12, 400 mg qd): 366 ± 150 L/h
CLss/F, median (min-max) ([3]; blood, Day 12, 400 mg qd): 351 (177-591) L/h
CLss/F, mean ± SD ([3]; blood, Day 12, 600 mg qd): 521 ± 131 L/h
CLss/F, median (min-max) ([3]; blood, Day 12, 600 mg qd): 569 (345-661) L/h
Cmax, median (min-max) ([3]; blood, Day 12, 600 mg qd): 475 (377-985) ng/mL
increase of Cmax from 100 mg to 200 mg b.i.d. ([3]; day 12): 1.33 fold
oral blood clearance CL/F, estimate across all cohorts ([3]; single dose, all SAD cohorts): about 383 L/h
Structure (SMILES): C=CC(=O)N(C)CCOc1c(N)ncnc1-c1cc(F)cc(NC(=O)c2ccc(C3CC3)cc2F)c1C [Compound (I), N-(3-(6-Amino-5-(2-(N-methylacrylamido)ethoxy)pyrimidin-4-yl)-5-fluoro-2-methylphenyl)-4-cyclopropyl-2-fluorobenzamide]
inhibition of wheal size in SPT [1]: minimal inhibition
